What all share (assay type): in vivo
The subject of experiment [1] is Chrysodeixis includens (Soybean Looper). The experiment in a line: Chrysodeixis includens larvicide, feeding/contact. Conditions: 120 h, test rate 50 ppm, L2 larvae on soybean leaves, 5 days after infestation, read-out: control in at least one of the two categories (mortality or growth inhibition). The protocol: Soybean plants were treated in a spray chamber, cut off and placed into petri dishes containing wet filter paper. 1 d after application leaves were infested with 5 L2 larvae and covered with a fabric filter and plastic lids. 5 days after infestation the samples were assessed for mortality and growth inhibition.

In experiment [2] the test system is Thrips tabaci (Onion thrips). As to the kind of experiment: Thrips tabaci feeding/contact activity. To be noted: foliar, 144 h, application rate 200 ppm, sunflower leaf discs, 6 days after infestation, read-out: control in at least one of the two categories (mortality or anti-feeding). The protocol:
Sunflower leaf discs were placed on agar in 24-well microtiter plates and sprayed with aqueous test solutions prepared from 10,000 ppm DMSO stock solutions. After drying the leaf discs were infested with a thrips population of mixed ages. The samples were assessed for mortality, and anti-feeding 6 days after infestation.

For experiment [3], the system named is Chilo suppressalis (Striped Stem Borer). As to the kind of experiment: Chilo suppressalis larvicide, feeding/contact. Conditions: 120 h, test rate 200 ppm, L2 larvae on sprayed rice plants, 5 days after application. As to the method: Rice plants were treated in a spray chamber, cut off and placed into petri dishes containing wet filter paper. 10 L2 larvae were infested and covered up with a cotton filter and a lid. 5 days after application samples were assessed for mortality.

Experiment [4] has as its system Myzus persicae (Green Peach Aphid). As to the kind of experiment: Myzus persicae systemic activity. To be noted: 144 h, test rate 24 ppm, roots of pea seedlings in test solution, 6 days. The protocol: Roots of pea seedlings infested with an aphid population of mixed ages were placed directly into aqueous test solutions prepared from 10,000 DMSO stock solutions. The samples were assessed for mortality 6 days after placing seedlings into test solutions.

Experiment [5] concerns Aedes aegypti (Yellow Fever Mosquito). As to the kind of experiment: whole plant or invertebrate. Conditions: test rate 200 ppm, adult females, mortality assessed at 24 and 48 hours. The protocol:
Test solutions, at an application rate of 200 ppm in ethanol, were applied to 12 well tissue culture plates. Once the deposits were dry, five, two to five day old adult female Aedes aegypti were added to each well, and sustained with a 10% sucrose solution in a cotton wool plug. Assessment of knockdown was made one hour after introduction, and mortality was assessed at 24 and 48 hours after introduction.

Experiment [6] concerns Anopheles stephensi (Indian Malaria Mosquito). As to the kind of experiment: Anopheles stephensi adult contact on treated plates. Conditions: test rate 200 ppm, adult females, mortality assessed at 24 and 48 hours. As to the method: Test solutions, at an application rate of 200 ppm in ethanol, were applied to 12 well tissue culture plates. Once the deposits were dry, five, two to five day old adult female Anopheles stephensi were added to each well, and sustained with a 10% sucrose solution in a cotton wool plug. Assessment of knockdown was made one hour after introduction, and mortality was assessed at 24 and 48 hours after introduction.

Experiment [7] has as its system house flies, Musca domestica. The experiment in a line: House fly adult contact bioassay. Conditions: 72 h, test rate 100 ppm, adult females, sprayed, 3 days. As to the method: (§1) Ten adult female house flies, Musca domestica, are placed in a 250 ml plastic drinking cup along with a sugar cube, and retained with a section of netting. Experimental compounds are diluted to 1000 ppm w/v in acetone, then subsequently to 100 ppm w/v in a 0.1% Tween solution in de-ionised water. 1 ml of the experimental solution is sprayed with a Potter tower directly through the retaining net onto the adult house flies. A damp cotton wool ball is placed on top of the retaining net, and the cups held at 24° C. and ambient humidity. Assessment of mortality is made three days after application.

The subject of experiment [8] is German cockroaches, Blattella germanica. The experiment in a line: Cockroach N3 contact bioassay. To be noted: 72 h, test rate 100 ppm, third nymphal stage, sprayed, 3 days. The protocol: as §1, with “third nymphal stage German cockroaches, Blattella germanica, were” for “adult female house flies, Musca domestica, are”, “ca. 1 g of compressed rabbit food,” for “a sugar cube,”, “cockroach nymphs.” for “adult house flies.”

For experiment [9] the test system is unchanged. As to the kind of experiment: Cockroach bait bioassay. Conditions: 72 h, test rate 1000 ppm in peanut butter bait, adults, 3 days. The protocol:
The experimental compound is diluted in acetone to 1000 ppm w/v. 1 ml of this solution is added to 1 g of smooth peanut butter in a 15 ml glass vial and thoroughly mixed. This mixture is left in a fume cupboard for 24 hours until all the acetone has evaporated. It is then mixed again to ensure a homogeneous distribution of the experimental compound with a concentration of 1000 ppm w/w.
Ten adult male and ten adult female German cockroaches, Blattella germanica, are placed in a plastic arena approximately 20 cm in diameter. Also placed in each arena are a simple harbourage constructed from concertinaed card, and a water source. After the cockroaches have acclimatised for 24 hours the glass vial containing 1 g of the treated bait is introduced.
Assessment of cockroach mortality is made 3 days after bait introduction.

In the case of `CC(c1ncnn1-c1ncccn1)N(C)C(=O)c1cc(C(F)(F)F)cc(C(F)(F)F)c1` (centres unmarked) [Compound 1], in experiment [1], the percent control (mortality or growth inhibition) at 50 ppm is at least 80%. In addition, in experiment [2], the percent control (mortality, anti-feedant effect or growth inhibition) at 200 ppm was at least 80%. In addition, the mortality at 200 ppm in experiment [3] is at least 80%. The same compound yielded a mortality at 24 ppm in experiment [4] of at least 80%.
Consider `CC(c1ncnn1-c1ncccn1)N(CC1CC1)C(=O)c1cc(C(F)(F)F)cc(C(F)(F)F)c1` (centres unmarked) [Compound 3], for which the mortality at 200 ppm in experiment [5] was at least 60%; in [6], at least 60%; in experiment [3], at least 80%. The mortality at 100 ppm in experiment [7] and in experiment [8] was at least 80% in each case. The percent control (mortality or growth inhibition) at 50 ppm in experiment [1] is at least 80%. Moreover, the percent control (mortality, anti-feedant effect or growth inhibition) at 200 ppm in experiment [2] is at least 80%. In addition, the mortality at 1000 ppm in experiment [9] was at least 80%. In experiment [4], this compound returned a mortality at 24 ppm of at least 80%.
As for `CC(NC(=O)c1cc(C(F)(F)F)cc(C(F)(F)F)c1)c1ncnn1-c1ncccn1` (centres unmarked) [Compound 4], the mortality at 100 ppm in [7] and in experiment [8] was at least 80% in each case. In addition, in [2], the percent control (mortality, anti-feedant effect or growth inhibition) at 200 ppm was at least 80%. In [9], the mortality at 1000 ppm is at least 80%.

As a reminder, the mortality is the percentage killed.

The values are drawn from patent US20210068395A1, “METHODS OF APPLYING ONE OR MORE CERTAIN HETEROARYL-1,2,4-TRIAZOLE AND HETEROARYL-TETRAZOLE COMPOUNDS TO CONTROL DAMAGE ON PLANTS, PROPAGATION MATERIAL THEREOF, AND PLANT DERIVED PRODUCTS” (SYNGENTA CROP PROTECTION AG, priority 2018, published 2021).
